Like-named read-outs stand apart in the source and are kept apart here.
Experiments:
[1] = tested on: HCC-78 cell line harbouring SLC34A2-ROS1 fusion; test: Antiproliferative MTT assay, HCC-78; format: cell-based, human; conditions: read-out: Cellular IC50 (μM) HCC-78
[2] = biological target: ALK^WT (Homo sapiens, UniProt Q9UM73); test: HTRF KinEASE-TK kinase inhibitory assay, ALK wild type; format: biochemical; conditions: for inhibition at 1 µM: read-out: ALK Inhibition (1μM); for ALK Inhibition (1μM): kinase inhibition % at 1 μM
[3] = biological target: c-MET (Homo sapiens, UniProt P08581); test: HTRF kinase inhibitory assay, c-MET; format: biochemical; conditions: for inhibition at 1 µM: read-out: c-MET Inhibition (1μM); for c-MET Inhibition (1μM): kinase inhibition % at 1 μM
[4] = tested on: NCI-H3122 cell line harbouring EML4-ALK fusion; test: Antiproliferative MTT assay, NCI-H3122; format: cell-based, human; conditions: read-out: Cellular IC50 (μM) NCI-H3122
[5] = biological target: ROS1 (Homo sapiens, UniProt P08922); test: HTRF KinEASE-TK kinase inhibitory assay, ROS1; format: biochemical; conditions: for inhibition at 1 µM: read-out: ROS1 Inhibition (1μM); for ROS1 Inhibition (1μM): kinase inhibition % at 1 μM
[6] = MTT, 72 h, mean of at least three independent experiments
[7] = average of two independent experiments
[8] = read-out: ROS1 IC50, average of two independent experiments

Sequence of c-MET (P08581 25-1390): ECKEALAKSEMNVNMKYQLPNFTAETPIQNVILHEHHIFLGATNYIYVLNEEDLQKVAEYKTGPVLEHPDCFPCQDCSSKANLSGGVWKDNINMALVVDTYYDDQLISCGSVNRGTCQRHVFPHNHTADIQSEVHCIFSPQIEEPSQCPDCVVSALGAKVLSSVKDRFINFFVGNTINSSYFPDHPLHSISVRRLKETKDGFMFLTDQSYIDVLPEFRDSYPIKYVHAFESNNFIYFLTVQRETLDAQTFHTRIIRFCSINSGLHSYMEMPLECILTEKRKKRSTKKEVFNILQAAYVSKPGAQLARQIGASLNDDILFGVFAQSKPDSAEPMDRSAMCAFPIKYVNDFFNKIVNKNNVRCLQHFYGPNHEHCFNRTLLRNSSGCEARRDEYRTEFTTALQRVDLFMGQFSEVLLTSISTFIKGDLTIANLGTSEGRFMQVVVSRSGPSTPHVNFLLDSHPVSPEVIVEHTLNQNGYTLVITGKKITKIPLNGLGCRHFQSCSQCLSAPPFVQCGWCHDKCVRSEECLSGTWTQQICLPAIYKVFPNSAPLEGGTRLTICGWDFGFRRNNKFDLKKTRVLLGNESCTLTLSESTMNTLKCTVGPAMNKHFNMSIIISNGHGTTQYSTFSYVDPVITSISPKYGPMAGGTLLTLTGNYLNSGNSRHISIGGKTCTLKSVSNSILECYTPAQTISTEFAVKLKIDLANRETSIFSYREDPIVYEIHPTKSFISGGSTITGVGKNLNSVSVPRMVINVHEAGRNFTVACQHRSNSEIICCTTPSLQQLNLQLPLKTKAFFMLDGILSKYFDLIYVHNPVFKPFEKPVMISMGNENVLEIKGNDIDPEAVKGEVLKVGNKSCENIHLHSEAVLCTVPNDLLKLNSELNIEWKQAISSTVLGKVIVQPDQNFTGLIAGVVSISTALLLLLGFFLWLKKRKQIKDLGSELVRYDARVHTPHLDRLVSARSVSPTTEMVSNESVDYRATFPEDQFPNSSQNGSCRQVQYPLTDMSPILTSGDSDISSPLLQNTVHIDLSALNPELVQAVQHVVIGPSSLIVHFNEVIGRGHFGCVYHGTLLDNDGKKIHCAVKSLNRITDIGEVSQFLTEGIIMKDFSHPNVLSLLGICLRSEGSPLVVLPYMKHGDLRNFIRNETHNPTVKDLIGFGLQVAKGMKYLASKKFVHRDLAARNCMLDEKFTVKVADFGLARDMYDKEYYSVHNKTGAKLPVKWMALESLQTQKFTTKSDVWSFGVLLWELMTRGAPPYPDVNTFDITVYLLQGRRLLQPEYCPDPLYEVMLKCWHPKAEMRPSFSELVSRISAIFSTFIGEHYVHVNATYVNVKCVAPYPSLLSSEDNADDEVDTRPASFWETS
Sequence of ALK^WT (Q9UM73 19-1620): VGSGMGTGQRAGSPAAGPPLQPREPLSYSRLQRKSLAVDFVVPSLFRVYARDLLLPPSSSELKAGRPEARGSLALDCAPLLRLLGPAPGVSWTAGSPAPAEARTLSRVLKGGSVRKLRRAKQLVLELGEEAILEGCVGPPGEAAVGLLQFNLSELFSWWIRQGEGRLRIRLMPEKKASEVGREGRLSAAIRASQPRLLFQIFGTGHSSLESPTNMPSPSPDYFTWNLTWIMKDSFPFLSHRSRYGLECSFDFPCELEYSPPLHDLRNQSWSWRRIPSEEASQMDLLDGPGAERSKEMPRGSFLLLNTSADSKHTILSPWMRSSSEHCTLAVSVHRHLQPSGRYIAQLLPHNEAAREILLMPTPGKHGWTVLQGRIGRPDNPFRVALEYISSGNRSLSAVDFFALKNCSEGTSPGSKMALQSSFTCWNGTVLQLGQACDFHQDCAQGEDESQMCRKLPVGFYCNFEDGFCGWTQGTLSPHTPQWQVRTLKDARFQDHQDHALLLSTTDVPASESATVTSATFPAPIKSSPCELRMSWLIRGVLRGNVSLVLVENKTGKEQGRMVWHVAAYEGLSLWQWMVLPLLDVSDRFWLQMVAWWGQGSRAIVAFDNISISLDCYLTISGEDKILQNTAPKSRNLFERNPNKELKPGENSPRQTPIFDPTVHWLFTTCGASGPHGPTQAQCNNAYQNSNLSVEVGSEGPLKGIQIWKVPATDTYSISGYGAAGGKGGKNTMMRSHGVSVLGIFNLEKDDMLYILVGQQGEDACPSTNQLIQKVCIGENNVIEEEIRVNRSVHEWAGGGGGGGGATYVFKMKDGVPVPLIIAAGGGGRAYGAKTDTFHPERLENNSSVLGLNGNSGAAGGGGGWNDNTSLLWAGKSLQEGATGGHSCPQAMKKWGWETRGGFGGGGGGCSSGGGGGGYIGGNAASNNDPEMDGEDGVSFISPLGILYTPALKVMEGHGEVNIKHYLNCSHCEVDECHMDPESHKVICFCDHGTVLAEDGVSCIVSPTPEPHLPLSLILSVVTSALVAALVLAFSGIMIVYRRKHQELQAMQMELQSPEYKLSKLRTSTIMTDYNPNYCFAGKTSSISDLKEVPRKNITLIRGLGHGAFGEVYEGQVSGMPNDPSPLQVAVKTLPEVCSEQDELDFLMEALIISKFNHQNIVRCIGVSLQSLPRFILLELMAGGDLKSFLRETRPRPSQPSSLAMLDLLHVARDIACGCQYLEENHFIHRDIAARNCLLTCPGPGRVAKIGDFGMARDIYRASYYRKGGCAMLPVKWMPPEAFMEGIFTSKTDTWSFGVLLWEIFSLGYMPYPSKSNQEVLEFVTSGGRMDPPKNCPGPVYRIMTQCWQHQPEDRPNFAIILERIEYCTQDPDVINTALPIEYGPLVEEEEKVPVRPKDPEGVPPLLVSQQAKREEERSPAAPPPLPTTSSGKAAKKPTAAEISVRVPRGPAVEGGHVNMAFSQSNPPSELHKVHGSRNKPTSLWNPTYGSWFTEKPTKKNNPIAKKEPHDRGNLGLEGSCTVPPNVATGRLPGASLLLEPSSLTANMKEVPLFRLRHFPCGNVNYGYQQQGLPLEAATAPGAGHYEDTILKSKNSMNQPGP

| Molecule | IC50 ([1]; Homo sapiens, HCC78, 72 h) [µM] | IC50 [2] [nM] | inhibition at 1 µM [2] [%] | inhibition at 1 µM [3] [%] | IC50 ([4]; Homo sapiens, NCI-H3122, 72 h) [µM] | IC50 [5] [nM] | inhibition at 1 µM [5] [%] | further results |
| --- | --- | --- | --- | --- | --- | --- | --- | --- |
| C[C@@H](Oc1cc(-c2ccnn2C)cnc1N)c1ccccc1 [A01, (R)-5–(1-methyl-1H-pyrazol-5-yl)-3–(1-phenylethoxy)pyridin-2-amine] | 28.7 ± 5.8 | 407 | 90 | 5 | 152 ± 44.4 | 173 | 101 |  |
| C[C@@H](Oc1cc(-c2cnn(C)c2)cnc1N)c1ccccc1 [A02, (R)-5–(1-methyl-1H-pyrazol-4-yl)-3–(1-phenylethoxy)pyridin-2-amine] | 36.4 ± 3.7 | 458 | 65 | 2 | 149 ± 18.5 | 99.5 | 101 |  |
| CCn1cc(-c2cnc(N)c(O[C@H](C)c3ccccc3)c2)cn1 [A03, (R)-5–(1-ethyl-1H-pyrazol-4-yl)-3–(1-phenylethoxy)pyridin-2-amine] | 50.5 ± 14 | 454 | 65 | 14 | 101 ± 22.8 | 317 | 85 |  |
| CCCn1cc(-c2cnc(N)c(O[C@H](C)c3ccccc3)c2)cn1 [A04, (R)-3–(1-phenylethoxy)-5–(1-propyl-1H-pyrazol-4-yl)pyridin-2-amine] |  | 1540 | 37 | 5 |  | 964 | 64 | fold decrease in ROS1 potency compared to A02 ([5]; 963.9 nM vs. 99.5 nM): ~10 fold |
| C[C@@H](Oc1cc(-c2cccn2C)cnc1N)c1ccccc1F [A05, (R)-3–(1-(2-fluorophenyl)ethoxy)-5–(1-methyl-1H-pyrrol-2-yl)pyridin-2-amine] | 278 ± 53.1 |  | 18 | -10 | 168 ± 39.4 |  | 43 |  |
| C[C@@H](Oc1cc(-c2cnn(C)c2)cnc1N)c1ccccc1F [A06, (R)-3–(1-(2-fluorophenyl)ethoxy)-5–(1-methyl-1H-pyrazol-4-yl)pyridin-2-amine] | 16 ± 1.2 | 231 | 73 | 11 | 10.2 ± 0.1 | 83.1 | 100 |  |
| CCn1cc(-c2cnc(N)c(O[C@H](C)c3ccccc3F)c2)cn1 [A07, (R)-5–(1-ethyl-1H-pyrazol-4-yl)-3–(1-(2-fluorophenyl)ethoxy)pyridin-2-amine] |  |  | 69 | 18 |  | 81.4 | 87 |  |
| CCCn1cc(-c2cnc(N)c(O[C@H](C)c3ccccc3F)c2)cn1 [A08, (R)-3–(1-(2-fluorophenyl)ethoxy)-5–(1-propyl-1H-pyrazol-4-yl)pyridin-2-amine] | 13.9 ± 6.3 |  | 58 | 22 | 36.8 ± 2.5 | 120 | 91 |  |
| C[C@@H](Oc1cc(-c2cccn2C)cnc1N)c1ccccc1-c1ccnn1C [B01, (R)-3–(1-(2–(1-methyl-1H-pyrazol-5-yl)phenyl)ethoxy)-5–(1-methyl-1H-pyrrol-2-yl)pyridin-2-amine] | 33.9 ± 1.8 |  | 30 | 0 | 186 ± 8.6 | 103 | 81 |  |
| C[C@@H](Oc1cc(-c2ccnn2C)cnc1N)c1ccccc1-c1ccnn1C [B02, (R)-5–(1-methyl-1H-pyrazol-5-yl)-3–(1-(2–(1-methyl-1H-pyrazol-5-yl)phenyl)ethoxy)pyridin-2-amine] | 64.8 ± 4.5 |  | 30 | 6 | 689 ± 57.2 | 216 | 86 |  |
| C[C@@H](Oc1cc(-c2cnn(C)c2)cnc1N)c1ccccc1-c1ccnn1C [B03, (R)-5–(1-methyl-1H-pyrazol-4-yl)-3–(1-(2–(1-methyl-1H-pyrazol-5-yl)phenyl)ethoxy)pyridin-2-amine] | 52.7 ± 15.2 | 286 | 88 | 21 | 207 ± 40.7 | 374 | 74 |  |
| CCn1cc(-c2cnc(N)c(O[C@H](C)c3ccccc3-c3ccnn3C)c2)cn1 [B04, (R)-5–(1-ethyl-1H-pyrazol-4-yl)-3–(1-(2–(1-methyl-1H-pyrazol-5-yl)phenyl)ethoxy)pyridin-2-amine] | 28 ± 4.5 |  | 59 | 28 | 128 ± 25.5 | 80.5 |  |  |
| CCCn1cc(-c2cnc(N)c(O[C@H](C)c3ccccc3-c3ccnn3C)c2)cn1 [B05, (R)-3–(1-(2–(1-methyl-1H-pyrazol-5-yl)phenyl)ethoxy)-5–(1-propyl-1H-pyrazol-4-yl)pyridin-2-amine] | 21.3 ± 0.7 | 1160 | 42 | 26 | 96.2 ± 6.9 | 260 | 90 |  |
| C[C@@H](Oc1cc(-c2cccn2C)cnc1N)c1ccccc1-c1ccccc1 [B06, (R)-3–(1-([1,1'-biphenyl]-2-yl)ethoxy)-5–(1-methyl-1H-pyrrol-2-yl)pyridin-2-amine] | 7.1 ± 0.7 |  | 44 | 9 | 24.8 ± 5 | 192 | 90 |  |
| C[C@@H](Oc1cc(-c2ccnn2C)cnc1N)c1ccccc1-c1ccccc1 [B07, (R)-3–(1-([1,1'-biphenyl]-2-yl)ethoxy)-5–(1-methyl-1H-pyrazol-5-yl)pyridin-2-amine] | 16.9 ± 1.4 | 217 | 99 | 8 | 14.3 ± 3.6 | 65.7 | 99 |  |
| CCn1cc(-c2cnc(N)c(O[C@H](C)c3ccccc3-c3ccccc3)c2)cn1 [B09, (R)-3–(1-([1,1'-biphenyl]-2-yl)ethoxy)-5–(1-ethyl-1H-pyrazol-4-yl)pyridin-2-amine] | 11.4 ± 0.5 | 75.9 | 92 | 50 | 8.5 ± 1.2 |  | 99 |  |
| CCCn1cc(-c2cnc(N)c(O[C@H](C)c3ccccc3-c3ccccc3)c2)cn1 [B10, (R)-3–(1-([1,1'-biphenyl]-2-yl)ethoxy)-5–(1-propyl-1H-pyrazol-4-yl)pyridin-2-amine] | 7.7 ± 1.2 |  | 82 | 60 | 13.9 ± 1.2 | 148 | 98 |  |
| (R)-5–(6-amino-5–(1-(3'-methyl-[1,1'-biphenyl]-2-yl)ethoxy)pyridin-3-yl)-1'-methylspiro[indoline-3,4'-piperidin]-2-one [C05] |  |  |  |  |  |  |  | IC50 [1, 6]: 4.6 ± 0.1 µM; ALK Inhibition (1μM) [2]: 101%; IC50 ([2]; read-out: ALK IC50): 79.7 nM; c-MET Inhibition (1μM) [3]: 59%; IC50 [4, 6]: 2.4 ± 0.1 µM; ROS1 Inhibition (1μM) [5, 7]: 100%; IC50 [5, 8]: 77.3 nM |
| (R)-5–(6-amino-5–(1-(4'-(trifluoromethoxy)-[1,1'-biphenyl]-2-yl)ethoxy)pyridin-3-yl)-1'-methylspiro[indoline-3,4'-piperidin]-2-one [C07] |  |  |  |  |  |  |  | IC50 [1, 6]: 4.2 ± 0.2 µM; ALK Inhibition (1μM) [2]: 55%; IC50 ([2]; read-out: ALK IC50): 414 nM; c-MET Inhibition (1μM) [3]: 18%; IC50 [4, 6]: 2.4 ± 0.1 µM; ROS1 Inhibition (1μM) [5, 7]: 95%; IC50 [5, 8]: 73.6 nM |
| (R)-5–(6-amino-5–(1-(4'-fluoro-[1,1'-biphenyl]-2-yl)ethoxy)pyridin-3-yl)-1'-methylspiro[indoline-3,4'-piperidin]-2-one [C06] |  |  |  |  |  |  |  | IC50 [1, 6]: 3.1 ± 0.3 µM; ALK Inhibition (1μM) ([2]; 1 µM): 91%; IC50 ([2]; read-out: ALK IC50): 214 nM; c-MET Inhibition (1μM) ([3]; 1 µM): 58%; IC50 [4, 6]: 1.4 ± 0.1 µM; ROS1 Inhibition (1μM) ([5]; average of two independent experiments, 1 µM): 98%; IC50 [5, 8]: 31.2 nM |
| (R)-5–(6-amino-5–(1-(4'-methyl-[1,1'-biphenyl]-2-yl)ethoxy)pyridin-3-yl)-1'-methylspiro[indoline-3,4'-piperidin]-2-one [C04] |  |  |  |  |  |  |  | ALK Inhibition (1μM) [2]: 100%; IC50 ([2]; read-out: ALK IC50): 38.8 nM; c-MET Inhibition (1μM) [3]: 43%; IC50 [4, 6]: 2.4 ± 0.3 µM; ROS1 Inhibition (1μM) [5, 7]: 100%; IC50 [5, 8]: 16.5 nM |

— paper PMC10288926 (Journal of Enzyme Inhibition and Medicinal Chemistry, 2023)
